# PubChem BioAssay AID1745844 (Carcinogenic Potency Database (CPDB), 2022)
# Values joined by “and” are separate entries in the source; they are usually repeats but may differ in a detail not shown here. Identical values can stand only once. Active and inactive are the calls of the source. How the calls were made is not given here.
# Test system: rodent lifetime carcinogenesis bioassay, tumor incidence TD50
# Test: carcinogenic potency in animals, long-term in vivo studies, CPDB compilation (AID 1745844)
# [1] = mouse, strain B6AKF1, males, oral dosing, site: liver, lesion: hepatoma, dosed 76 weeks, study length 76 weeks
# [2] = mouse, strain B6C3F1, males, oral dosing, site: any site (literature study), lesion: several types, types named in the paper, dosed 76 weeks, study length 76 weeks
# [3] = mouse, strain B6C3F1, males, oral dosing, site: liver, lesion: hepatoma, dosed 76 weeks, study length 76 weeks
structure (smiles),measurement,setting,value
O=c1ccc2ccccc2o1,TD50,"hamster, strain Syrian Golden, females, in feed, site: any site (literature study), lesion: several types, types named in the paper, dosed 95 weeks, study length 104 weeks",5520 mg/kg/day (inactive)
same,carcinogen call,"hamster, strain Syrian Golden, females, in feed, site: liver, lesion: one or several types, types not named, dosed 95 weeks, study length 104 weeks",negative (inactive)
same,TD50,"hamster, strain Syrian Golden, males, in feed, site: any site (literature study), lesion: several types, types named in the paper, dosed 104 weeks, study length 104 weeks",603 mg/kg/day (inactive)
same,carcinogen call,"hamster, strain Syrian Golden, males, in feed, site: liver, lesion: one or several types, types not named, dosed 104 weeks, study length 104 weeks",negative (inactive)
same,TD50,"mouse, strain B6C3F1, females, by gavage, site: any site (literature study), lesion: several types, types named in the paper, dosed 103 weeks, study length 104 weeks",198 mg/kg/day
same,TD50,"mouse, strain B6C3F1, females, by gavage, site: forestomach, lesion: squamous-cell carcinoma + squamous-cell papilloma, dosed 103 weeks, study length 104 weeks",42000 mg/kg/day
same,TD50,"mouse, strain B6C3F1, females, by gavage, site: forestomach, lesion: squamous-cell papilloma, dosed 103 weeks, study length 104 weeks",12200 mg/kg/day
same,TD50,"mouse, strain B6C3F1, females, by gavage, site: liver + lung, lesion: hepatocellular adenoma + hepatocellular carcinoma + alveolar/bronchiolar adenoma + alveolar/bronchiolar carcinoma, dosed 103 weeks, study length 104 weeks",85.5 mg/kg/day
same,TD50,"mouse, strain B6C3F1, females, by gavage, site: liver, lesion: hepatocellular adenoma + hepatoblastoma + hepatocellular carcinoma, dosed 103 weeks, study length 104 weeks",65.7 mg/kg/day
same,TD50,"mouse, strain B6C3F1, females, by gavage, site: liver, lesion: hepatocellular adenoma + hepatocellular carcinoma, dosed 103 weeks, study length 104 weeks",65.7 mg/kg/day
same,TD50,"mouse, strain B6C3F1, females, by gavage, site: liver, lesion: hepatocellular adenoma, dosed 103 weeks, study length 104 weeks",72.8 mg/kg/day
same,TD50,"mouse, strain B6C3F1, females, by gavage, site: lung, lesion: alveolar/bronchiolar adenoma + alveolar/bronchiolar carcinoma, dosed 103 weeks, study length 104 weeks",135 mg/kg/day
same,TD50,"mouse, strain B6C3F1, females, by gavage, site: lung, lesion: alveolar/bronchiolar adenoma, dosed 103 weeks, study length 104 weeks",179 mg/kg/day
same,TD50,"mouse, strain B6C3F1, females, by gavage, site: lung, lesion: alveolar/bronchiolar carcinoma, dosed 103 weeks, study length 104 weeks",825 mg/kg/day
same,TD50,"mouse, strain B6C3F1, males, by gavage, site: all sites, lesion: histiocytic sarcoma + malignant lymphoma, histiocytic type + malignant lymphoma, mixed type + malignant lymphoma, lymphocytic, dosed 103 weeks, study length 104 weeks",600 mg/kg/day
same,TD50,"mouse, strain B6C3F1, males, by gavage, site: any site (literature study), lesion: several types, types named in the paper, dosed 103 weeks, study length 104 weeks",461 mg/kg/day
same,TD50,"mouse, strain B6C3F1, males, by gavage, site: forestomach, lesion: squamous-cell carcinoma + squamous-cell papilloma, dosed 103 weeks, study length 104 weeks",152 mg/kg/day
same,TD50,"mouse, strain B6C3F1, males, by gavage, site: forestomach, lesion: squamous-cell papilloma, dosed 103 weeks, study length 104 weeks",179 mg/kg/day
same,TD50,"mouse, strain B6C3F1, males, by gavage, site: liver, lesion: hepatoblastoma, dosed 103 weeks, study length 104 weeks",632 mg/kg/day
same,TD50,"mouse, strain B6C3F1, males, by gavage, site: lung, lesion: alveolar/bronchiolar adenoma + alveolar/bronchiolar carcinoma, dosed 103 weeks, study length 104 weeks",241 mg/kg/day
same,TD50,"mouse, strain B6C3F1, males, by gavage, site: lung, lesion: alveolar/bronchiolar adenoma, dosed 103 weeks, study length 104 weeks",265 mg/kg/day
same,TD50,"mouse, strain B6C3F1, males, by gavage, site: pancreatic islets, lesion: islet-cell adenoma, dosed 103 weeks, study length 104 weeks",1310 mg/kg/day
same,TD50,"mouse, strain Charles River CD1, females, in feed, site: liver, lesion: several types, types named in the paper, dosed 109 weeks, study length 109 weeks",176 mg/kg/day (inactive)
same,TD50,"mouse, strain Charles River CD1, females, in feed, site: lung, lesion: adenocarcinoma, dosed 109 weeks, study length 109 weeks",3140 mg/kg/day (inactive)
same,TD50,"mouse, strain Charles River CD1, females, in feed, site: lung, lesion: adenoma, dosed 109 weeks, study length 109 weeks",4500 mg/kg/day (inactive)
same,carcinogen call,"mouse, strain Charles River CD1, males, in feed, site: liver, lesion: several types, types named in the paper, dosed 101 weeks, study length 101 weeks",negative (inactive)
same,TD50,"mouse, strain Charles River CD1, males, in feed, site: lung, lesion: adenocarcinoma, dosed 101 weeks, study length 101 weeks",1020 mg/kg/day (inactive)
same,carcinogen call,"mouse, strain Charles River CD1, males, in feed, site: lung, lesion: adenoma, dosed 101 weeks, study length 101 weeks",negative (inactive)
same,TD50,"rat, strain Fischer 344, females, by gavage, site: any site (literature study), lesion: several types, types named in the paper, dosed 103 weeks, study length 104 weeks",456 mg/kg/day
same,TD50,"rat, strain Fischer 344, females, by gavage, site: kidney, lesion: tubule adenoma, dosed 103 weeks, study length 104 weeks",1410 mg/kg/day and 930 mg/kg/day
same,TD50,"rat, strain Fischer 344, males, by gavage, site: any site (literature study), lesion: several types, types named in the paper, dosed 39 weeks, study length 104 weeks",210 mg/kg/day
same,TD50,"rat, strain Fischer 344, males, by gavage, site: any site (literature study), lesion: several types, types named in the paper, dosed 65 weeks, study length 104 weeks",12.2 mg/kg/day
same,TD50,"rat, strain Fischer 344, males, by gavage, site: any site (literature study), lesion: several types, types named in the paper, dosed 101 weeks, study length 104 weeks",12 mg/kg/day
same,TD50,"rat, strain Fischer 344, males, by gavage, site: forestomach, lesion: squamous-cell papilloma, dosed 101 weeks, study length 104 weeks",142 mg/kg/day
same,TD50,"rat, strain Fischer 344, males, by gavage, site: kidney, lesion: adenoma + tubule adenoma + tubule carcinoma, dosed 101 weeks, study length 104 weeks",13.9 mg/kg/day
same,TD50,"rat, strain Fischer 344, males, by gavage, site: kidney, lesion: adenoma + tubule adenoma, dosed 101 weeks, study length 104 weeks",226 mg/kg/day and 13.9 mg/kg/day
same,TD50,"rat, strain Fischer 344, males, by gavage, site: kidney, lesion: tubule adenoma, dosed 65 weeks, study length 104 weeks",67.6 mg/kg/day
same,TD50,"rat, strain Fischer 344, males, by gavage, site: kidney, lesion: tubule carcinoma, dosed 101 weeks, study length 104 weeks",151 mg/kg/day
same,TD50,"rat, strain Fischer 344, males, by gavage, site: liver, lesion: hepatocellular adenoma + hepatoblastoma + hepatocellular carcinoma, dosed 65 weeks, study length 104 weeks",171 mg/kg/day
same,TD50,"rat, strain Fischer 344, males, by gavage, site: pituitary gland, lesion: pars distalis adenoma, dosed 101 weeks, study length 104 weeks",19.7 mg/kg/day
same,TD50,"rat, strain Fischer 344, males, by gavage, site: testis, lesion: interstitial-cell adenoma, dosed 39 weeks, study length 104 weeks",19.8 mg/kg/day
same,TD50,"rat, strain Fischer 344, males, by gavage, site: testis, lesion: interstitial-cell adenoma, dosed 65 weeks, study length 104 weeks",8.22 mg/kg/day
same,TD50,"rat, strain Fischer 344, males, by gavage, site: testis, lesion: interstitial-cell adenoma, dosed 101 weeks, study length 104 weeks",3.62 mg/kg/day
same,TD50,"rat, strain Sprague-Dawley, females, in feed, site: liver, lesion: cholangiocarcinoma, dosed 110 weeks, study length 110 weeks",767 mg/kg/day
same,TD50,"rat, strain Sprague-Dawley, females, in feed, site: liver, lesion: several types, types named in the paper, dosed 110 weeks, study length 110 weeks",1440 mg/kg/day
same,TD50,"rat, strain Sprague-Dawley, males, in feed, site: liver, lesion: cholangiocarcinoma, dosed 104 weeks, study length 104 weeks",302 mg/kg/day
same,TD50,"rat, strain Sprague-Dawley, males, in feed, site: liver, lesion: several types, types named in the paper, dosed 104 weeks, study length 104 weeks",365 mg/kg/day
N#CN,TD50,[1],191 mg/kg/day
same,TD50,"mouse, strain B6C3F1, females, in feed, site: all sites, lesion: leukemia + lymphoma, dosed 100 weeks, study length 100 weeks",478 mg/kg/day (inactive)
same,TD50,"mouse, strain B6C3F1, females, in feed, site: lung, lesion: alveolar/bronchiolar adenoma + alveolar/bronchiolar carcinoma, dosed 100 weeks, study length 100 weeks",4040 mg/kg/day
same,TD50,"mouse, strain B6C3F1, females, oral dosing, site: any site (literature study), lesion: several types, types named in the paper, dosed 76 weeks, study length 76 weeks",68 mg/kg/day
same,TD50,"mouse, strain B6C3F1, males, in feed, site: all sites, lesion: hemangiosarcoma, dosed 100 weeks, study length 100 weeks",766 mg/kg/day (inactive)
same,TD50,"mouse, strain B6C3F1, males, in feed, site: any site (literature study), lesion: several types, types named in the paper, dosed 100 weeks, study length 100 weeks",909 mg/kg/day
same,TD50,"mouse, strain B6C3F1, males, oral dosing, site: all sites, lesion: reticulum-cell sarcoma, dosed 76 weeks, study length 76 weeks",30.9 mg/kg/day
same,TD50,[2],16.7 mg/kg/day
same,TD50,[3],55.7 mg/kg/day
same,TD50,"rat, strain Fischer 344, females, in feed, site: any site (literature study), lesion: several types, types named in the paper, dosed 107 weeks, study length 107 weeks",267 mg/kg/day (inactive)
same,TD50,"rat, strain Fischer 344, males, in feed, site: all sites, lesion: leukemia + lymphoma + neoplasm, NOS, dosed 107 weeks, study length 107 weeks",7.45 mg/kg/day (inactive)
CC(Oc1cc(Cl)ccc1Cl)C(=O)O (stereo not drawn),carcinogen call,"mouse, strain B6AKF1, females, oral dosing, site: any site (literature study), lesion: several types, types named in the paper, dosed 76 weeks, study length 76 weeks",negative (inactive)
same,carcinogen call,"mouse, strain B6AKF1, females, oral dosing, site: liver, lesion: hepatoma, dosed 76 weeks, study length 76 weeks",negative (inactive)
same,carcinogen call,"mouse, strain B6AKF1, females, oral dosing, site: lung, lesion: adenoma, dosed 76 weeks, study length 76 weeks",negative (inactive)
same,carcinogen call,"mouse, strain B6AKF1, males, oral dosing, site: any site (literature study), lesion: several types, types named in the paper, dosed 76 weeks, study length 76 weeks",negative (inactive)
same,carcinogen call,[1],negative (inactive)
same,carcinogen call,"mouse, strain B6AKF1, males, oral dosing, site: lung, lesion: adenoma, dosed 76 weeks, study length 76 weeks",negative (inactive)
same,carcinogen call,"mouse, strain B6C3F1, females, oral dosing, site: any site (literature study), lesion: one or several types, types not named, dosed 76 weeks, study length 76 weeks",negative (inactive)
same,carcinogen call,"mouse, strain B6C3F1, females, oral dosing, site: liver, lesion: hepatoma, dosed 76 weeks, study length 76 weeks",negative (inactive)
same,carcinogen call,"mouse, strain B6C3F1, females, oral dosing, site: lung, lesion: several types, types named in the paper, dosed 76 weeks, study length 76 weeks",negative (inactive)
same,TD50,[2],10.5 mg/kg/day (inactive)
same,TD50,[3],36.7 mg/kg/day (inactive)
same,TD50,"mouse, strain B6C3F1, males, oral dosing, site: lung, lesion: adenoma, dosed 76 weeks, study length 76 weeks",36.7 mg/kg/day (inactive)
Nc1cc([N+](=O)[O-])ccc1C(=O)O,carcinogen call,"mouse, strain B6C3F1, females, in feed, site: any site (literature study), lesion: several types, types named in the paper, dosed 78 weeks, study length 93 weeks",negative (inactive)
same,TD50,"mouse, strain B6C3F1, females, in feed, site: lung, lesion: alveolar/bronchiolar adenoma + alveolar/bronchiolar carcinoma, dosed 78 weeks, study length 93 weeks",2560 mg/kg/day
same,TD50,"mouse, strain B6C3F1, males, in feed, site: all sites, lesion: hemangioma + hemangiosarcoma, dosed 78 weeks, study length 93 weeks",12600 mg/kg/day (inactive)
same,TD50,"mouse, strain B6C3F1, males, in feed, site: any site (literature study), lesion: several types, types named in the paper, dosed 78 weeks, study length 93 weeks",1660 mg/kg/day
same,carcinogen call,"rat, strain Fischer 344, females, in feed, site: any site (literature study), lesion: several types, types named in the paper, dosed 78 weeks, study length 105 weeks",negative (inactive)
same,TD50,"rat, strain Fischer 344, females, in feed, site: liver, lesion: hepatocellular adenoma + hepatocellular carcinoma + neoplastic nodule, dosed 78 weeks, study length 105 weeks",11800 mg/kg/day
same,carcinogen call,"rat, strain Fischer 344, males, in feed, site: any site (literature study), lesion: several types, types named in the paper, dosed 78 weeks, study length 105 weeks",negative (inactive)
same,TD50,"rat, strain Fischer 344, males, in feed, site: liver, lesion: hepatocellular adenoma + hepatocellular carcinoma + neoplastic nodule, dosed 78 weeks, study length 105 weeks",3710 mg/kg/day
